Data set [1] concerns Porcine Smooth Muscle Cell. Nature of the data set: Smooth muscle cell proliferation, 3H thymidine incorporation (serum stimulated). It is filed as cell-based. The conditions noted are these: for IC50: 3H thymidine incorporation, read-out: Porcine Smooth Muscle Cell Antiproliferation IC50. The protocol:
The ability of the compounds of the present invention to inhibit smooth muscle cell proliferation was established using isolated aortic cells. Porcine aortas were received from a local slaughterhouse and were iced during transit. The aorta was scrupulously cleansed of fatty tissue and rinsed in sterile phosphate-buffered saline with 2% antibiotic/antimycotic (Gibco catalog # 600 - 5240 AG). The tissue was then digested in 10 - 15 mL of "Enzyme Mixture" containing collagenase type I, 165 U/mL; elastase type III, 15 U/mL; BSA, 2 mg/mL; and soybean trypsin inhibitor, 0.375 mg/mL followed by incubation at 37 °C under 5% CO2 for 10 - 15 min. After this treatment, the outer surface adventitia was easily removed by peeling with forceps. The aorta was then longitudinally cut and laid open and the endothelial layer was removed by scraping.
The medial layer of cells was rinsed in enzyme solution, and placed in a new 100 mm dish with 10 mL of enzyme solution. The aorta was minced using a fine pair of scissors and digested for 2 - 3 h at 37 °C in 30 mL of fresh enzyme solution. After digestion, the tissue was homogenized using a sterile Pasteur pipette with a fire polished tip or an eppendorf pipetter with a 200 - 1000 µL sterile pipette tip. The suspension was then centrifuged for 10 minutes at 8000 rpm and the pellet was suspended in 4 - 6 mL of fresh medium and plated onto 4 - 6 100 mm flasks with vented caps. Cells were allowed to grow to confluence and split using 0.25 % trypsin. Cells were evaluated for purity and overall quality using antibody to SMC actin.
Cells were assayed in early passage (generally passage 3 - 7) at sub-confluent conditions. Cultures were grown in 16 mm (24 well) multi-well culture dishes in medium 199 supplemented with 10% fetal bovine serum and 2% antibiotic/ antimycotic. At sub-confluence, the cells were placed in a defined serum free medium (AIM-V; Gibco) for 24 - 48 h prior to initiating the experimental protocol.
Compounds were added to each well at 50 fold dilution (20 µL / well) and the plates were incubated for 24 - 36 h at 37 °C in 5% CO2. Compounds were initially dissolved in 50% ethanol and serially diluted into media. Compounds were routinely assayed at concentrations from 1 to 100 µM. As a control, grade II porcine intestinal mucosal heparin (sodium salt) from Sigma (H-7005) was routinely assayed in all cell preparations at concentrations from 0.1 to 100 µg/mL.
At the completion of the experiment, plates were placed on ice, washed three times with ice cold phosphate buffered saline (PBS) and incubated in ice cold 10% trichloroacetic acid (TCA) for 30 minutes to remove acid soluble proteins. Solution was transferred to scintillation vials containing 0.4 N HCl (500 µL/vial to neutralize NaOH) and each well was rinsed two times with water (500 µL) for a total volume of 2 mL/vial.
Data was obtained, in triplicate, for both control and experimental samples. Control (100%) data was obtained from maximally stimulated cells, as the result of growth factor or serum stimulation. Experimental data was obtained from cells maximally stimulated with growth factor or serum and treated with compound. Data was expressed as a percent of control from which a percent inhibition or IC50 could be determined.
Background: Incorporation of labelled thymidine or its analogues reports DNA synthesis.

Data set [2] relates to Porcine Smooth Muscle Cell. Nature of the data set: Cytotoxicity, MTT assay. It counts as cell-based. The following applies: up to 100 µg/mL; 24 h, medium without serum. The protocol:
Briefly, cells were again grown in 24 well plates to 70 - 80 % confluency and, as before, serum deprived for 24 - 48 h prior to initiation of the experimental protocol. To insure that the MTT assay monitored toxicity rather than proliferation, cells were incubated with 100 µg/mL of drug in fresh medium without serum for 24 h at 37 °C in a humidified CO2 incubator. Upon completion of the compound treatment, MTT (3-[4,5-dimethylthiazol-2-yl]-2,5-diphenyltetrazolium bromide) indicator dye was added for 4 h at 37 °C. Cells were then lysed and aliquots from each well were transferred to a 96 well plate for analysis. Absorbance at 570 nm wavelength with a reference wavelength of 630 nm was recorded using an ELISA plate reader. Results were determined as percent viable using no drug (100% viable) and pre-solubilization (0% viable) standards.
Background: Formazan colour is commonly taken as a measure of viable cells.

The test system of another data set is normal human plasma. As to the kind of experiment: Anticoagulant activity, partial thromboplastin time (APTT) assay. It counts as biochemical. The following applies: human citrated plasma. The method, then: The anticlotting activity of the compounds of this invention was evaluated in a partial thromboplastin time (APTT) assay using normal human plasma collected from 5 donors according to the procedure of Fenichel et. al. (Clin. Chem. 1964, 10, 69). A BBL Fibrometer automatic precision coagulation timer utilizing a 0.3 mL probe was employed. An Ellagic acid activated partial thromboplastin was used for these experiments. This reagent was added to human citrated plasma equilibrated at 37 °C in a plastic well in the clot timer. Calcium at 37 °C was added, the clot timer was started and the time for fibrin clot formation (in seconds) was recorded. The effect of the compounds, added to plasma, over a concentration of 12.5 - 200 µg/mL was determined. […] An unfractionated heparin comparator was used over the concentration range of 1.25 - 10 µg/mL. Clotting tests at all concentrations were run in triplicate. Analysis of variance for a randomized block design was used to determine the significance of differences observed in the clotting times. […]

Setting [3] is: Sus scrofa, read-out: Porcine Smooth Muscle Cell Antiproliferation (% Inhibition at x concentration).

With “N-{3-[2-(Hepta-O-acetyl-β-D-maltosyloxymethyl)-6-methylphenylcarbamoyl]phenyl}-3,5-di-tert-butyl-4-hydroxybenzamide [Example 7]”, the IC50 in data set [1] was found to be 185 µM.
For `CC(=O)OC[C@H]1O[C@@H](OCc2ccc(C)c(NC(=O)c3cccc(N)c3)c2)[C@H](OC(C)=O)[C@@H](OC(C)=O)[C@@H]1OC(C)=O` [Example 2, 3-Amino-N-[2-methyl-5-(2,3,4,6-tetra-O-acethyl-β-D-glucopyranosyloxymethyl)phenyl]benzamide], the inhibition at 50 µg/mL in data set [1] (setting [3]) turned out to be 23%.
On to `CC(=O)OC[C@H]1O[C@H](O[C@H]2[C@H](OC(C)=O)[C@@H](OC(C)=O)[C@H](OCc3ccc(N)c(C)c3)O[C@@H]2COC(C)=O)[C@H](OC(C)=O)[C@@H](OC(C)=O)[C@@H]1OC(C)=O` [Example 29, 4-(Hepta-O-acetyl-β-D-maltosyloxymethyl)-2-methylphenylamine], for which the inhibition at 40 µM in data set [1] (setting [3]) is 70%.
Regarding `CC(=O)Nc1cccc(C(=O)Nc2cc(CO[C@@H]3O[C@H](COC(C)=O)[C@@H](O[C@H]4O[C@H](COC(C)=O)[C@@H](OC(C)=O)[C@H](OC(C)=O)[C@H]4OC(C)=O)[C@H](OC(C)=O)[C@H]3OC(C)=O)ccc2C)c1` [Example 6, 3-Acetylamino-N-[5-(hepta-O-acetyl-β-D-maltosyloxymethyl)-2-methylphenyl]benzamide], the “toxicity (MTT, percent viable)” value in data set [2] is reported as “no toxicity”.
As for `CC(=O)OC[C@H]1O[C@H](O[C@H]2[C@H](OC(C)=O)[C@@H](OC(C)=O)[C@H](OCc3ccc(C)c(NC(=O)c4cccc(N)c4)c3)O[C@@H]2COC(C)=O)[C@H](OC(C)=O)[C@@H](OC(C)=O)[C@@H]1OC(C)=O` [Example 5, N-[5-(Hepta-O-acetyl-β-D-maltosyloxymethyl)-2-methylphenyl]-3-aminobenzamide], in data set [1] (setting [3]), the inhibition at 50 µg/mL turned out to be 44%.
Same read-out and setting: in the case of `CC(=O)OC[C@H]1O[C@H](O[C@H]2[C@H](OC(C)=O)[C@@H](OC(C)=O)[C@H](OCc3ccc(C)c(NC(=O)c4cccc([N+](=O)[O-])c4)c3)O[C@@H]2COC(C)=O)[C@H](OC(C)=O)[C@@H](OC(C)=O)[C@@H]1OC(C)=O` [Example 4, N-[5-(Hepta-O-acetyl-β-D-maltosyloxymethyl)-2-methylphenyl]-3-nitrobenzamide] it was 13%.
`CC(=O)OC[C@H]1O[C@H](O[C@H]2[C@H](OC(C)=O)[C@@H](OC(C)=O)[C@H](OCc3ccc(C)c(NC(=O)C4CC4)c3)O[C@@H]2COC(C)=O)[C@H](OC(C)=O)[C@@H](OC(C)=O)[C@@H]1OC(C)=O` [Example 14, Cyclopropanecarboxylic Acid N-[5-(Hepta-O-acetyl-β-D-maltosyloxymethyl)-2-methylphenyl]amide]: the “toxicity (MTT, percent viable)” value in data set [2] is “no toxicity”.
For the compound `CC(=O)OC[C@H]1O[C@H](O[C@H]2[C@H](OC(C)=O)[C@@H](OC(C)=O)[C@H](OCc3ccc(C)c(N)c3)O[C@@H]2COC(C)=O)[C@H](OC(C)=O)[C@@H](OC(C)=O)[C@@H]1OC(C)=O` [Example 3, 5-(Hepta-O-acetyl-β-maltosyloxymethyl)-2-methylphenylamine], the “toxicity (MTT, percent viable)” value in data set [2] is “no toxicity”. Also, in the data set on normal human plasma, the “anticoagulant activity (APTT assay)” value is listed as “no anticoagulant activity”.
In the case of `CC(=O)OC[C@H]1O[C@H](O[C@H]2[C@H](OC(C)=O)[C@@H](OC(C)=O)[C@H](OCc3ccc(C)c(NC(=O)C4CCCC4)c3)O[C@@H]2COC(C)=O)[C@H](OC(C)=O)[C@@H](OC(C)=O)[C@@H]1OC(C)=O` [Example 15, Cyclopentanecarboxylic Acid N-[5-(Hepta-O-acetyl-β-D-maltosyloxymethyl)-2-methylphenyl]amide], the “toxicity (MTT, percent viable)” value in data set [2] is “no toxicity”.
For the compound `CCC(=O)Nc1cc(CO[C@@H]2O[C@H](COC(C)=O)[C@@H](O[C@H]3O[C@H](COC(C)=O)[C@@H](OC(C)=O)[C@H](OC(C)=O)[C@H]3OC(C)=O)[C@H](OC(C)=O)[C@H]2OC(C)=O)ccc1C` [Example 11, N-[5-(Hepta-O-acetyl-β-D-maltosyloxymethyl)-2-methylphenyl]propionamide], the “toxicity (MTT, percent viable)” value in data set [2] was “no toxicity”. In addition, in the data set with normal human plasma, the “anticoagulant activity (APTT assay)” value was “no anticoagulant activity”.
Turning to `CC(=O)OC[C@H]1O[C@H](O[C@H]2[C@H](OC(C)=O)[C@@H](OC(C)=O)[C@H](OCc3ccc(C)c(NC(=O)CCC4CCCC4)c3)O[C@@H]2COC(C)=O)[C@H](OC(C)=O)[C@@H](OC(C)=O)[C@@H]1OC(C)=O` [Example 16, N-[5-(Hepta-O-acetyl-β-D-maltosyloxymethyl)-2-methylphenyl]-3-cyclopentylpropionamide], the “toxicity (MTT, percent viable)” value in data set [2] is listed as “no toxicity”.
Consider “Butane-1-sulfonic Acid N-[5-(Hepta-O-acetyl-β-D-maltosyloxymethyl)-2-methylphenyl]amide [Example 28]”, for which the IC50 in data set [1] turned out to be 9 µM.
For `CC(=O)OC[C@H]1O[C@H](O[C@H]2[C@H](OC(C)=O)[C@@H](OC(C)=O)[C@H](OCc3ccc(N(S(=O)(=O)c4ccc([N+](=O)[O-])cc4)S(=O)(=O)c4ccc([N+](=O)[O-])cc4)c(C)c3)O[C@@H]2COC(C)=O)[C@H](OC(C)=O)[C@@H](OC(C)=O)[C@@H]1OC(C)=O` [Example 31, N-[4-(Hepta-O-acetyl-β-D-maltosyloxymethyl)-2-methylphenyl]-4-nitro-N-(4-nitrophenylsulfonyl)benzenesulfonamide], the inhibition at 100 µM in data set [1] (Sus scrofa, at 100 µM, read-out: Porcine Smooth Muscle Cell Antiproliferation (% Inhibition at x concentration)) came to 37%.
Regarding `CCC(=O)OC[C@H]1O[C@H](O[C@H]2[C@H](OC(=O)CC)[C@@H](OC(=O)CC)[C@H](OCc3ccc(C)c(N(C(=O)CC)S(=O)(=O)c4ccc(N(C(=O)CC)S(C)(=O)=O)cc4)c3)O[C@@H]2COC(=O)CC)[C@H](OC(=O)CC)[C@@H](OC(=O)CC)[C@@H]1OC(=O)CC` [Example 33, N-Propionyl-4-[propionyl(methanesulfonyl)amino]-N-[5-(hepta-O-propionyl-β-D-maltosyloxymethyl)-2-methylphenyl]benzenesulfonamide], the inhibition at 20 µM in data set [1] (Sus scrofa, at 20 µM, read-out: Porcine Smooth Muscle Cell Antiproliferation (% Inhibition at x concentration)) came to 30%.
`CC(=O)OC[C@H]1O[C@@H](OCc2ccc(C)c(NC(=O)c3cccc([N+](=O)[O-])c3)c2)[C@H](OC(C)=O)[C@@H](OC(C)=O)[C@@H]1OC(C)=O` [Example 1, N-[2-Methyl-5-(2,3,4,6-tetra-O-acetyl-β-D-glucopyranosyloxymethyl)phenyl]-3-nitrobenzamide]: in data set [1] (setting [3]), the inhibition at 50 µg/mL stood at 79%.
In the case of `CC(=O)OC[C@H]1O[C@H](O[C@H]2[C@H](OC(C)=O)[C@@H](OC(C)=O)[C@H](OCc3ccc(C)c(NS(=O)(=O)c4ccc(C)cc4)c3)O[C@@H]2COC(C)=O)[C@H](OC(C)=O)[C@@H](OC(C)=O)[C@@H]1OC(C)=O` [Example 24, N-[5-(Hepta-O-acetyl-β-D-maltosyloxymethyl)-2-methylphenyl]-4-methylbenzenesulfonamide], in data set [1] (setting [3]), the inhibition at 40 µM is 61%.
